What all share (format): biochemical
The target of assay [1] is rat maltase (partially purified alpha-glucosidase from intestinal rat powder). The assay can be described thus: Intestinal alpha-glucosidase assay, maltose substrate (Glucose GO Kit). The gist of the method:
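Enzyme from intestinal rat powder, partially purified, is exposed to compound for 60 min at 37 °C. Disaccharide substrate (maltose or sucrose respectively) then reacts 30 min at 37 °C. Heat-stopped samples are assayed for glucose, and percent inhibition versus concentration gives IC50 via 4-PL.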

Assay [2] concerns the target rat sucrase (partially purified alpha-glucosidase from intestinal rat powder) (Rattus norvegicus, UniProt P23739). The assay can be described thus: Intestinal alpha-glucosidase assay, sucrose substrate (Glucose GO Kit). The gist of the method:
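Partially purified alpha-glucosidase from rat intestinal powder was preincubated 60 min at 37 °C with serial compound dilutions, then given maltose or sucrose and incubated 30 min at 37 °C.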

Assay [3] has as its target T1, recombinant alpha-glucosidase I (human full-length glucosidase I, Glu 1) (Homo sapiens, UniProt Q13724).
T1 construct: 6-His (C); made in house; host or cells: HEK-293T cells transduced with BacMam virus (virus raised in Sf9)
T1 sequence (Q13724 1-837): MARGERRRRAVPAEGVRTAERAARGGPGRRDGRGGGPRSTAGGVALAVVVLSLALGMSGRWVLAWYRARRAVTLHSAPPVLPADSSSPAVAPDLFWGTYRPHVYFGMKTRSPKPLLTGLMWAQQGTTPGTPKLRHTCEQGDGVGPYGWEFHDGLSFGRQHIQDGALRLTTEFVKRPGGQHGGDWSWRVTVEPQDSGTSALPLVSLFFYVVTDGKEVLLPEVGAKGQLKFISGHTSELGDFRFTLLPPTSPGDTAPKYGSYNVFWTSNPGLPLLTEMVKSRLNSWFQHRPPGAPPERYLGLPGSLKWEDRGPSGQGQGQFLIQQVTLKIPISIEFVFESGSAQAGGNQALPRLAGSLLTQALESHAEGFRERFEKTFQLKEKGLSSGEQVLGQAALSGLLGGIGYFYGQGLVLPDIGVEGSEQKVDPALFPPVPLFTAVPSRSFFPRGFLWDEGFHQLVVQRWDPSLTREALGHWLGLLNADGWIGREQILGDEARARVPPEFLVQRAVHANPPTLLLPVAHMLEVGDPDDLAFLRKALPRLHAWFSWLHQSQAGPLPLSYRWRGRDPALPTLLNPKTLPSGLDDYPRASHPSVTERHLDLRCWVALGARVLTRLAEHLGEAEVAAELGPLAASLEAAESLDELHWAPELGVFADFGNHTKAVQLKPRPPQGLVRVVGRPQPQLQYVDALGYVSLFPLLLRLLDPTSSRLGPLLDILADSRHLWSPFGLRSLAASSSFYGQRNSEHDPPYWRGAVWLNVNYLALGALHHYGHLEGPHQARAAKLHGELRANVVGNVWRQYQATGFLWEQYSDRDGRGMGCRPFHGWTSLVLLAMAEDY
The assay can be described thus: Alpha-glucosidase I assay (Amplex Red glucose detection, synthetic trisaccharide substrate). The following applies: Glucosidase 1; read-out: Glu 1 IC50. The gist of the method: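 Compound dilution series incubated 60 min at 37° C with recombinant His-tagged human glucosidase I ([…]), after which trisaccharide substrate analog was added for 90 min at 37° C. Reaction quenched with 1.5M Tris pH 8; D-glucose detected by Amplex Red fluorescence, 560/590 nm. 4-PL curve fit of percent inhibition gave IC50.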

The target of assay [4] is T2, recombinant alpha-glucosidase II (murine full-length glucosidase II, alpha and beta subunits, Glu 2) (Mus musculus, UniProt Q8BHN3).
T2 construct: made in house; host or cells: HEK-293T cells transduced with BacMam viruses (75% alpha, 25% beta); protein harvested from culture supernatant
The assay can be described thus: Alpha-glucosidase II assay (4-methylumbelliferyl-alpha-D-pyranoside substrate, fluorescence). The following applies: Glucosidase 2; read-out: Glu2 IC50.

Sequence of rat sucrase (partially purified alpha-glucosidase from intestinal rat powder) (P23739 whole entry): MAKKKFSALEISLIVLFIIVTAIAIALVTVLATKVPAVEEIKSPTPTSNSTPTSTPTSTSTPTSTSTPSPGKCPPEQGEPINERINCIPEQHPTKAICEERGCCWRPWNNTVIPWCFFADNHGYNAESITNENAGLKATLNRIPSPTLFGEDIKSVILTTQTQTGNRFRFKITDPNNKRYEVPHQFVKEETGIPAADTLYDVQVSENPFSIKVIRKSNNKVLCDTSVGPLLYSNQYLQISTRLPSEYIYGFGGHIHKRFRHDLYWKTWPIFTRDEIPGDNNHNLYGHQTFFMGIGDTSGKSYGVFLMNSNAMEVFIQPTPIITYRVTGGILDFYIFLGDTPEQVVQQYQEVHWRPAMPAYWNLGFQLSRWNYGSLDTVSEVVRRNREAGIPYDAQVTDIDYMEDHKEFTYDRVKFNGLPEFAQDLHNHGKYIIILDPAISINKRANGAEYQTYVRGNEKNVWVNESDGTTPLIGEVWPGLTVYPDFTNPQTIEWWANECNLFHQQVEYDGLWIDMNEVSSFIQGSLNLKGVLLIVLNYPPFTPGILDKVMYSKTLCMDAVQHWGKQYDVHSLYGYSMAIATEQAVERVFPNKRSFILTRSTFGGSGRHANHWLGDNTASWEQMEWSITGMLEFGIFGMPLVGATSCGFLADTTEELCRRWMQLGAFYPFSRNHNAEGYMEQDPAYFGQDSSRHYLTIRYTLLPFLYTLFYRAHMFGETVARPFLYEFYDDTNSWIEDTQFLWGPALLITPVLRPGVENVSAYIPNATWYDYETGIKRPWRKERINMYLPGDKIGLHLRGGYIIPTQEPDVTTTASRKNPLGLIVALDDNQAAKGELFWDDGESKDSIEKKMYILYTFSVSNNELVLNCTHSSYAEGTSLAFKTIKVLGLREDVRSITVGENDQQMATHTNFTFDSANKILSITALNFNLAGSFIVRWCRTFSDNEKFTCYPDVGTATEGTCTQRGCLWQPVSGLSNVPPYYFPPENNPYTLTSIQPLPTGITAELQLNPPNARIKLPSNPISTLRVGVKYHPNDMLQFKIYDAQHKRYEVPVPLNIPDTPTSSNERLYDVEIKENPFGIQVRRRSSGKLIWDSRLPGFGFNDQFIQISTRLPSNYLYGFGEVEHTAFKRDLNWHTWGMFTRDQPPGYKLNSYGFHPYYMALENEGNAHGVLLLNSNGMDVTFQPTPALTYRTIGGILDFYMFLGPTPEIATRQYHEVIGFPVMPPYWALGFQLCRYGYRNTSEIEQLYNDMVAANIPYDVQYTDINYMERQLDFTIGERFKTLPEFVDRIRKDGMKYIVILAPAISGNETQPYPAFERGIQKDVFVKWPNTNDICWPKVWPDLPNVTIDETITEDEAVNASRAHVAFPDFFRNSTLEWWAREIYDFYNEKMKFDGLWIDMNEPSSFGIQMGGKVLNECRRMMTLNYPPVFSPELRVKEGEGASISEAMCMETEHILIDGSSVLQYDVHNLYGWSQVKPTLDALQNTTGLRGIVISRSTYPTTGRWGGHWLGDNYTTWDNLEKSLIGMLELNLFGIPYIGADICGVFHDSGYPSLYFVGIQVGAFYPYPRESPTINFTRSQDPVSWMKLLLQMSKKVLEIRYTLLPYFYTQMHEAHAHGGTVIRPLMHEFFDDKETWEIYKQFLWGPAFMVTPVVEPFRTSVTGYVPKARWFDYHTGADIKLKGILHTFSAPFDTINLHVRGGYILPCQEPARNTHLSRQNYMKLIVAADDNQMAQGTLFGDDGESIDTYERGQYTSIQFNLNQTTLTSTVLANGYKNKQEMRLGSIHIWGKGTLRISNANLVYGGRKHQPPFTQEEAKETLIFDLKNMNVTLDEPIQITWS
T2 sequence (O08795 15-521): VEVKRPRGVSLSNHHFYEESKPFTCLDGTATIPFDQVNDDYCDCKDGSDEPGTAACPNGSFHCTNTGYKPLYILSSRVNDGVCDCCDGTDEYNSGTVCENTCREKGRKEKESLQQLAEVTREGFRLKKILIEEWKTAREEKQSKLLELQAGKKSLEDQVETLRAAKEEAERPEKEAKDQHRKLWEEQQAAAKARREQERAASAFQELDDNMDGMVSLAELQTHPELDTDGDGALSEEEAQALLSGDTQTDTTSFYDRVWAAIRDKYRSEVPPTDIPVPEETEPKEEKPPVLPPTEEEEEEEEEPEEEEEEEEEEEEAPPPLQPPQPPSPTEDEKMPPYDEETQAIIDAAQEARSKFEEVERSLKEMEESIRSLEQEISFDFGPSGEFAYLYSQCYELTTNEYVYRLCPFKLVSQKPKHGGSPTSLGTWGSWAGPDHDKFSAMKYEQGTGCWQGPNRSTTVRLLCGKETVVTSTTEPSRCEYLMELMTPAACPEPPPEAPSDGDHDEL
T2 sequence (Q8BHN3 33-944): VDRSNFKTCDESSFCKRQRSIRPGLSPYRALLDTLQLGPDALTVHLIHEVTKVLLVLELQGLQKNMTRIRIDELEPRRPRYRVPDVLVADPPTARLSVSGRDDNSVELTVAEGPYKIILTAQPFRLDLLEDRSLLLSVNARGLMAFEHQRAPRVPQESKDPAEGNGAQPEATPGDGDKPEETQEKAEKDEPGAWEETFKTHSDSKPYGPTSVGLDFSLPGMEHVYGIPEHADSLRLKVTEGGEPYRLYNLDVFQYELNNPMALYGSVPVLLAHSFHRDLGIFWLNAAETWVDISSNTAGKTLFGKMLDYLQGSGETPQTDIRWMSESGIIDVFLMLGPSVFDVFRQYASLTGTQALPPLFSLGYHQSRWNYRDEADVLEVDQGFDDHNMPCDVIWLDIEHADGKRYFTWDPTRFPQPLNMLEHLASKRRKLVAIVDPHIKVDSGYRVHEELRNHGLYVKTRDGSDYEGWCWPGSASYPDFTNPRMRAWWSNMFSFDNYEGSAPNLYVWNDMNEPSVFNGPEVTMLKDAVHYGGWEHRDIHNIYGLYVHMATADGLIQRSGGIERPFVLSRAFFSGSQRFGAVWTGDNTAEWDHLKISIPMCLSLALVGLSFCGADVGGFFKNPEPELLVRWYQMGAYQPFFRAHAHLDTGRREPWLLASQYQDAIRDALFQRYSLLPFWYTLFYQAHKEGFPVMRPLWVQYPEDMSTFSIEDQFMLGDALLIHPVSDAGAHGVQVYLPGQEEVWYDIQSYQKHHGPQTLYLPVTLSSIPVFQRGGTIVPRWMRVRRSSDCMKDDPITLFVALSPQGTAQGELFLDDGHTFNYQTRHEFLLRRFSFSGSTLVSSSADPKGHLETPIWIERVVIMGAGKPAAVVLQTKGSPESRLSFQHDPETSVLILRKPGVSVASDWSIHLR

As to `Cc1nc(=O)c2cc(-c3ncccn3)ccc2n1CCCCCCN1C[C@H](O)[C@@H](O)[C@H](O)[C@H]1CO` [Compound 1246, 2-methyl-6-(pyrimidin-2-yl)-1-{6-[(2R,3R,4R,5S)-3,4,5-trihydroxy-2-(hydroxymethyl)piperidin-1-yl]hexyl}-1,4-dihydroquinazolin-4-one], the half-inhibitory concentration (IC50) (usually the midpoint of a concentration-inhibition curve) is greater than 100000 nM in assay [1], greater than 100000 nM in assay [2], 112 nM in assay [3] and 4 nM in assay [4].

`CS(C)=NS(=O)(=O)c1cc(-c2ncccn2)ccc1NCCCCCCN1C[C@H](O)[C@@H](O)[C@H](O)[C@H]1CO` [Compound 1247, N-(dimethyl-2-sulfanylidene)-5-(pyrimidin-2-yl)-2-({6-[(2R,3R,4R,5S)-3,4,5-trihydroxy-2-(hydroxymethyl)piperidin-1-yl]hexyl}amino)benzene-1-sulfonamide]: the concentration for half-maximal inhibition (IC50) in assay [1] worked out at 18 nM; in assay [2] it was 216 nM; in assay [3], 493 nM; in assay [4], 6 nM.

For the compound `[N-]=[N+]=Nc1ccc(NCCc2ccccc2CCN2C[C@H](O)[C@@H](O)[C@H](O)[C@H]2CO)c([N+](=O)[O-])c1` [Compound 1249], the IC50 in assay [1] was determined as 3490 nM; in assay [2], 1870 nM; in assay [3], 2450 nM; in assay [4] it was 162 nM.

In the case of `N#Cc1ccc(F)cc1NCCCCCCN1C[C@H](O)[C@@H](O)[C@H](O)[C@H]1CO` [Compound 1251, 4-fluoro-2-({6-[(2R,3R,4R,5S)-3,4,5-trihydroxy-2-(hydroxymethyl)piperidin-1-yl]hexyl}amino)benzonitrile], the IC50 was determined as 4 nM in assay [1], 38 nM in assay [2], 226 nM in assay [3] and 12 nM in assay [4].

For the compound `[N-]=[N+]=Nc1ccc(N2CC(OCCN3C[C@H](O)[C@@H](O)[C@H](O)[C@H]3CO)C2)c([N+](=O)[O-])c1` [Compound 1252, (2R,3R,4R,5S)-1-(2-{[1-(4-azido-2-nitrophenyl)azetidin-3-yl]oxy}ethyl)-2-(hydroxymethyl)piperidine-3,4,5-triol], the IC50 in assay [1] turned out to be 37 nM; in assay [2], 80 nM; in assay [3], 1350 nM; in assay [4], 82 nM.

Consider `Nc1ccc(NCCn2cc(CCN3C[C@H](O)[C@@H](O)[C@H](O)[C@H]3CO)nn2)c([N+](=O)[O-])c1Cl` [Compound 1253, (2R,3R,4R,5S)-1-[2-(1-{2-[(4-amino-3-chloro-2-nitrophenyl)amino]ethyl}-1H-1,2,3-triazol-4-yl)ethyl]-2-(hydroxymethyl)piperidine-3,4,5-triol], for which the IC50 was determined as 777 nM in assay [1], 3440 nM in assay [2], 1750 nM in assay [3] and 225 nM in assay [4].

As for `[N-]=[N+]=Nc1ccc(N2CCN(CCN3C[C@H](O)[C@@H](O)[C@H](O)[C@H]3CO)CC2)c([N+](=O)[O-])c1` [Compound 1254, (2R,3R,4R,5S)-1-{2-[4-(4-azido-2-nitrophenyl)piperazin-1-yl]ethyl}-2-(hydroxymethyl)piperidine-3,4,5-triol], the half-inhibitory concentration (IC50) in assay [1] amounted to 1210 nM; in assay [2], 6530 nM; in assay [3], 6770 nM; in assay [4], 865 nM.

For the compound `[N-]=[N+]=Nc1ccc(NCCOCCN2C[C@H](O)[C@@H](O)[C@H](O)[C@H]2CO)c([N+](=O)[O-])c1` [Compound 1255, (2R,3R,4R,5S)-1-(2-{2-[(4-azido-2-nitrophenyl)amino]ethoxy}ethyl)-2-(hydroxymethyl)piperidine-3,4,5-triol], the IC50 in assay [1] came to 33 nM; in assay [2], 56 nM; in assay [3], 2010 nM; in assay [4], 29 nM.

As to `N#Cc1cc(-c2ncccn2)ccc1NCCCCCCN1C[C@H](O)[C@@H](O)[C@H](O)[C@H]1CO` [Compound 1256, 5-(pyrimidin-2-yl)-2-({6-[(2R,3R,4R,5S)-3,4,5-trihydroxy-2-(hydroxymethyl)piperidin-1-yl]hexyl}amino)benzonitrile], the concentration for half-maximal inhibition (IC50) in assay [1] was found to be 10 nM; in assay [2] it was 88 nM; in assay [3] it was 90 nM; in assay [4], 6 nM.
